Source: US20220267753A1, “RATIONAL THERAPEUTIC TARGETING OF ONCOGENIC IMMUNE SIGNALING STATES IN MYELOID MALIGNANCIES VIA THE UBIQUITIN CONJUGATING ENZYME UBE2N” (CHILDREN'S HOSPITAL MEDICAL CENTER, priority 2019, published 2022)

Columns and labels:
[1] = system: MOLM-13 cells; assay: Ubiquitin-enrichment screen by mass spectrometry; assay type: cell-based, human; settings: 2 μM
Description: Details of the ubiquitin-enrichment screen are described herein. Briefly, MOLM-13 cells were treated for 24 hr. with 2 μM of UC-764864. Ubiquitin-related peptide enrichment was performed by using ubiquitin remnant motif (K-ε-GG) antibody-conjugated beads (Cell Signaling Technology, Danvers, Mass.) following the manufacturer's instructions. Tryptic peptides were loaded onto the beads, and then ubiquitin-conjugated peptides were eluted from the bead. Nanoliquid chromatography coupled to electrospray tandem mass spectrometry (nanoLC-ESI-MS/MS) analyses were performed on a TripleTof 5600+ mass spectrometer (Sciex; Concord, Ontario, Canada) coupled with a nanoLC-ultra nanoflow system (Eksigent; Dublin, Calif.) in data dependent acquisition (DDA) or data independent acquisition (DIA) modes for Sequential Window Acquisition of all Theoretical mass spectra (SWATH-MS) analysis.
MOLM-13 cells were treated for 24 hours with 2 μM of UC-764864. […] To reduce redundant peptide sequencing, former MS/MS-analyzed candidate ions were excluded after its first occurrence for 12 s. The DDA data was recorded using Analyst-1T (v.1.7) software. […]

[2] = system: MOLM-13 cells; assay: MOLM-13 xenograft in NSG mice; assay type: in vivo; settings: 2 mg/kg i.p.
Description: Lentivirally-infected MOLM-13 cells or HL-60 cells (1.9×10^4 cells per recipient) expressing a non-silencing control shRNA or UBE2N specific shRNAs were tail vein transplanted into sublethally irradiated NOD-scid IL2Rγ^−/− (NSG) mice (250 rads whole body irradiation). Moribund mice were sacrificed and assessed for leukemic burden measurements. BM and spleen cells were analyzed for GFP expression by flow cytometry using a BD FACS Canto System (BD Biosciences, San Jose, Calif.). Bone marrow aspirates were taken 2 weeks after transplantation for smears or to assess engraftment by flow cytometry. For survival analysis after UBE2N inhibitors treatment, NSG mice (n=10/group) were injected with 1×10^4 MOLM-13 cells and treated with 4 doses of 2 mg/kg/d of UC-764865, or vehicle control (0.2% tween 20 in water) for 2 weeks (8 doses total). Time of death was recorded, and Kaplan Meier survival analysis was performed using GraphPad Prism version 7.00 for Mac (GraphPad Software, La Jolla Calif. USA). Engraftment was assessed in bone marrow (BM) at one week after transplantation by flow cytometric determination of human CD33 (BDPharmingen 555450, Franklin Lakes, N.J.), human CD45 and/or human CD15. Briefly, mice were euthanized with carbon dioxide following the AVMA Guidelines for the Euthanasia of Animals and BM cells were immediately extracted by breaking the femurs with a mortar and pestle. Red blood cells were lysed with RBC lysis buffer (555899 BD Biosciences) and washed twice with Phosphate-Buffered Saline (PBS) (Dulbecco's 45000-446 (PK)), 2% Fetal Bovine Serum (FBS). 1×10^6 cells were stained with human CD33 (BDPharmighen 555450), murine CD45 (BDPharmighen 557659) by incubating in PBS, 0.2% FBS for 30 minutes on ice in the dark. After staining the cells were washed once with PBS and resuspended in incubation buffer with propidium iodine. Cells were analyzed using a BD FACS Canto System (BD Biosciences, San Jose, Calif.). Alternatively, 1×10^4 MOLM-13 cells were xenotransplanted in NSG mice without conditioning (n=10/group). Treatment with UBE2N inhibitors was started one day after transplant for […] (5 days dosing of 2 mg/kg/d, resting 2 days, 2 days dosing of 2 mg/kg/d) by intraperitoneal injections (IP). All the mice were sacrificed at day 10 post transplantation and engraftment of MOLM-13 cells was analyzed in spleen and BM by staining for human CD15 (BDPharmighen 551376) as described above. For patient-derived xenografts (PDX), 1×106 to 6×10^6 cells were transplanted via tail vain in NSGS mice conditioned with busulfan (final dose of 30 mg/kg) 24 hours prior to transplantation. Treatment with UC-764865 was started 3 days after transplantation with 5 weekly doses of 25 mg/kg UC-764865 or vehicle control (methyl-β-cyclodextrin, 50 mg/ml) via LP during a period of 2-6 weeks. BM aspirates were performed once a week and determination of engraftment was performed as described above.

| SMILES | ubiquitination levels of other Ub-conjugating enzymes ([1]; MOLM-13) | ubiquitination of UBE2N at Lys-92 ([1]; MOLM-13, P<0.01) | onset of leukemia ([2]; 4 doses/week for 2 weeks, vehicle 8 days) [days] | overall median survival ([2]; 4 doses/week for 2 weeks, vehicle 17 days, P<0.0001) [days] | reduction of leukemic burden (percent of human CD15+ cells) in BM ([2]; 7 doses, day 10 post transplantation, P=0.03) [%] | reduction of leukemic burden (percent of human CD15+ cells) in spleen ([2]; 7 doses, day 10 post transplantation, P=0.3) [%] | spleen weight at time of death ([2]; vehicle 63±29 mg, P=0.0001) [mg] | reduction of splenomegaly at time of death ([2]; vs vehicle) [%] |
| --- | --- | --- | --- | --- | --- | --- | --- | --- |
| CCc1ccc(C(=O)C=CSc2nc3ccc(C)cc3[nH]2)cc1 [UC-764864, 1-(4-ethylphenyl)-3-[(6-methyl-1H-benzimidazol-2-yl)sulfanyl]prop-2-en-1-one] | did not significantly alter | significantly reduced |  |  |  |  |  |  |
| COc1ccc(C(=O)C=CSc2nc3ccc(C)cc3[nH]2)cc1 [UC-764865, 1-(4-methoxyphenyl)-3-[(6-methyl-1H-benzimidazol-2-yl)sulfanyl]prop-2-en-1-one] |  |  | 18 | 21 | 40 | 70 | 18 ± 6 | 80 |
